In patent publication US11753408B2, “Compounds and method for blocking transmission of malarial parasite” (The United States of America, as represented by the …, priority 2016, dated 2023):

Legend:
[1] = tested on: Stage III-V gametocytes (blood stage P. falciparum parasites); experiment: In vitro drug activity on gametocytes (AlamarBlue viability assay); assay type: cell-based, Plasmodium falciparum; settings: read-out: Gametocyte EC50
Method in brief: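 Viability was measured by AlamarBlue fluorescence (Ex 525/Em 598 nm) after 24 h dye incubation following 72 h compound exposure at 37° C, 5% CO2. Gametocytes, stage III–V from strains 3D7, HB3 and Dd2, were NAG/Percoll-enriched and plated at 20,000 cells/well.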

PAMPA permeability = assay type: in vitro ADME
mTOR = mTOR (Homo sapiens, UniProt P42345); experiment: mTOR activity (no method described); assay type: biochemical
[2] = Microsomal stability (rat); assay type: in vitro ADME; settings: rat microsomes
[3] = tested on: Asexual parasites of P. falciparum strain 3D7; experiment: In vitro drug activity on asexual parasites (SYBR Green assay); assay type: cell-based, Plasmodium falciparum
Method in brief: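 SYBR Green I fluorescence (ex 490, em 520 nm) was read after freeze-thaw lysis and 30 min staining at room temperature. Before that, drug-treated cultures (0.5% parasitemia, 2% hematocrit, DMSO ≤0.5%) were incubated 72 h, in duplicate.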

Solubility at pH 7.4 = assay type: physicochemical

O=C1NCc2cc(-c3ccc4ncc5ccc(=O)n(-c6ccc(C(=O)N7CCOCC7)cc6)c5c4c3)ccc21 [Compound 129]
EC50 [1]: 680 nM
PAMPA Permeability (PAMPA permeability): 5.4 ×10⁻⁶ cm/s
mTOR (mTOR): 856.7 nM
Microsomal Stability (rat) T1/2 [2]: >30.0 min
EC50 [3]: 1440 nM
Sol @ pH 7.4 (Solubility at pH 7.4): 20.3 ug/mL

CN(C)Cc1ccc(-c2ccc3ncc4ccc(=O)n(-c5ccc(C(=O)N6CC7CC6CN7C)cc5)c4c3c2)cc1 (stereo not drawn) [Compound 165]
EC50 [1]: 4090 nM
PAMPA Permeability (PAMPA permeability): 1.8 ×10⁻⁶ cm/s
mTOR (mTOR): 50000 nM
Microsomal Stability (rat) T1/2 [2]: >30.0 min
EC50 [3]: 934 nM
Sol @ pH 7.4 (Solubility at pH 7.4): >80.0 ug/mL

NCCc1ccc(-c2ccc3ncc4ccc(=O)n(-c5ccc(C(=O)N6CCOCC6)cc5)c4c3c2)cc1 [Compound 183]
EC50 [1]: 131 nM
PAMPA Permeability (PAMPA permeability): < 1 ×10⁻⁶ cm/s
mTOR (mTOR): 794.5 nM
Microsomal Stability (rat) T1/2 [2]: >30 min
EC50 [3]: 49.8 nM
Sol @ pH 7.4 (Solubility at pH 7.4): 28.4 ug/mL

Nc1ccc(-c2ccc3ncc4ccc(=O)n(-c5ccc(C(=O)N6CCOCC6)cc5)c4c3c2)cn1 [Compound 334]
EC50 [1]: 19.7 nM
PAMPA Permeability (PAMPA permeability): 14.9 ×10⁻⁶ cm/s
mTOR (mTOR): 88.72 nM
Microsomal Stability (rat) T1/2 [2]: >30.0 min
EC50 [3]: 8.21 nM
Sol @ pH 7.4 (Solubility at pH 7.4): 30 ug/mL

CN(C)Cc1ccc(-c2ccc3ncc4ccc(=O)n(-c5ccc(C(=O)N6CC7CN(C)CC7C6)cc5)c4c3c2)cc1 (stereo not drawn) [Compound 161]
EC50 [1]: 1540 nM
PAMPA Permeability (PAMPA permeability): 5.4 ×10⁻⁶ cm/s
mTOR (mTOR): 47050 nM
Microsomal Stability (rat) T1/2 [2]: >30.0 min
EC50 [3]: 512 nM
Sol @ pH 7.4 (Solubility at pH 7.4): >82.0 ug/mL

CCN(CC)C(=O)c1ccc(-n2c(=O)ccc3cnc4ccc(-c5ccc(Cl)cc5)cc4c32)cc1 [Compound 132]
EC50 [1]: 344 nM
PAMPA Permeability (PAMPA permeability): 2320 ×10⁻⁶ cm/s
mTOR (mTOR): 736.2 nM
Microsomal Stability (rat) T1/2 [2]: <1.0 min
EC50 [3]: 63.1 nM
Sol @ pH 7.4 (Solubility at pH 7.4): <1.0 ug/mL

Nc1cccc(-c2ccc3ncc4ccc(=O)n(-c5ccc(C(=O)N6CCOCC6)cc5)c4c3c2)c1 [Compound 130]
EC50 [1]: 72.2 nM
PAMPA Permeability (PAMPA permeability): 467 ×10⁻⁶ cm/s
mTOR (mTOR): 202.1 nM
Microsomal Stability (rat) T1/2 [2]: >30.0 min
EC50 [3]: 20.2 nM
Sol @ pH 7.4 (Solubility at pH 7.4): 9.2 ug/mL

N#Cc1cc(-c2ccc3ncc4ccc(=O)n(-c5ccc(C(=O)N6CCOCC6)cc5)c4c3c2)ccc1Cl [Compound 153]
EC50 [1]: 52.9 nM
PAMPA Permeability (PAMPA permeability): 57.9 ×10⁻⁶ cm/s
mTOR (mTOR): 18360 nM
Microsomal Stability (rat) T1/2 [2]: 9.4 min
EC50 [3]: 127 nM
Sol @ pH 7.4 (Solubility at pH 7.4): <1.0 ug/mL
